The OPERA property sets (Mansouri et al. 2018)

Settings: not given

SMILES	boiling point [°C]	log10 vapour pressure (mmHg)	melting point [°C]	log10 biodegradation half-life (days)	ready biodegradability	log10 Henry constant (atm·m³/mol)	log10 Koc (L/kg)
CC(C)COC=O	98.2	1.6	-95.8	–	–	–	–
CCOc1ccccc1OCC	219	–	44	–	–	–	–
CCc1cccc(C)c1C	194	-0.206	-49.5	0.778	–	–	–
CC(C)c1ccc(C(=O)O)cc1	–	–	118	–	readily biodegradable	–	–
Fc1cc(F)c(F)cc1F	90.2	1.75	4.5	–	–	–	–
Cc1ccc2c(-c3ccccc3)nc(=O)n(C(C)C)c2c1	–	–	138	–	–	–	–
CC(C)OC(=O)C(C)C	121	1.2	–	–	–	–	–
C=CCCCCCCCCC(=O)OCC	264	–	-38	–	–	–	–
ClC(Cl)(Cl)I	142	–	-7.8	–	–	–	–
Clc1cccc(-c2ccccc2Cl)c1	–	–	–	–	–	-3.6	–
CC(C)(c1cc(Br)c(OCC(Br)CBr)c(Br)c1)c1cc(Br)c(OCC(Br)CBr)c(Br)c1 (stereo unspecified)	–	–	–	–	not readily biodegradable	–	–
CCCCCCCCc1ccccc1	264	-1.95	-36	–	–	–	–
Clc1ccc(I)cc1	227	-1.23	57	–	–	–	–
CCCCCC(C)CCC (stereo unspecified)	166	–	-99	–	–	–	–
CCN(Cc1ccncc1)C(=O)C(CO)c1ccccc1 (stereo unspecified)	–	–	96.5	–	–	–	–
Clc1cc(Cl)cc(Br)c1	232	–	83	–	–	–	–
c1ccc(-c2ccc(-c3ccc(-c4ccccc4)cc3)cc2)cc1	–	–	320	–	–	–	–
CC(=O)c1cc2c(cc1C)C(C)(C)C(C)CC2(C)C (stereo unspecified)	–	–	54.5	–	–	–	–
CCCC(C)C(C)(C)O (stereo unspecified)	160	–	–	–	–	–	–
CCOP(=S)(OCC)OC(Cl)C(Cl)(Cl)Cl (stereo unspecified)	–	-3.1	–	–	–	–	3.6
N#Cc1ncnc2nc[nH]c12	–	–	188	–	–	–	–
CC(C)N1C(=O)c2ccccc2[N]([Na])S1(=O)=O	–	–	–	–	–	–	1.54
N#Cc1cc[n+]([O-])cc1	–	–	224	–	–	–	–

SMILES	boiling point [°C]	log10 vapour pressure (mmHg)	melting point [°C]	log10 biodegradation half-life (days)	ready biodegradability	log10 Henry constant (atm·m³/mol)	log10 Koc (L/kg)
O=C(O)Cc1ccccc1Oc1ccc(Cl)cc1Cl	–	–	112	–	–	–	–
Cc1ccc(N)cc1Br	256	–	26	–	–	–	–
CCCN1CCCCC1	152	–	–	–	–	–	–
CN(C)CCCCCCN(C)C	210	–	–	–	not readily biodegradable	–	–
CCOC(=O)CC(C)C	135	0.919	-99.3	–	–	–	–
C/C=C/C=C/CCCCCCCO	–	-3.29	32	–	–	–	–
Cc1ccccc1CCO	244	–	2	–	–	–	–
CC(C)C1=CC[C@H](C)CC1	168	–	–	–	–	–	–
CCCCCCc1ccc(O)cc1O	334	–	68	–	–	–	–
CC1=Cc2ccccc2C1	208	–	80	0.477	–	–	–
COC(=O)Nc1cccc(Cl)c1	–	–	–	–	–	–	2.15
CC(=O)Nc1cccc(C(F)(F)F)c1	–	–	104	–	–	–	1.75
CC(=O)O[C@H]1C[C@@H]2CC[C@@H]3[C@H](CC[C@@]4(C)[C@H]3C[C@H]([N+]3(C)CCCCC3)[C@@H]4OC(C)=O)[C@@]2(C)C[C@@H]1N1CCCCC1.[Br-]	–	–	228	–	–	–	–
Cc1ccc2cccc(C)c2c1	263	–	-13.9	–	–	–	–
C=CC(C)C(C)C (stereo unspecified)	80.8	–	–	–	–	–	–
CCCCCCc1cccc2ccccc12	322	–	-18	–	–	–	–
CN(C)CCC#N	173	–	–	–	–	–	–
C1CCC(C2CCCCC2)CC1	238	-0.967	4	–	–	–	–
CC(C)Oc1ccccc1	177	–	-33	–	–	–	–
CC(CC(C)(C)O)OC(O)C(Cl)(Cl)Cl (stereo unspecified)	–	–	103	–	–	–	–
Clc1cccc(Cl)c1-c1c(Cl)cccc1Cl	–	–	–	–	–	-3.7	4.9
CC(C)(c1cc(Br)c(O)c(Br)c1)c1cc(Br)c(O)c(Br)c1	–	–	181	–	not readily biodegradable	–	–

Same assay, conditions: fish

SMILES	log10 biotransformation half-life (days)	log10 BCF
CCCCCCCCc1ccccc1	0.22	–
C1CCC(C2CCCCC2)CC1	0.38	–
Clc1ccc(Oc2cc(Cl)c(Cl)cc2Cl)c(Cl)c1	2.02	–
Clc1cccc(Cl)c1-c1c(Cl)cccc1Cl	–	3.85
CC(C)(c1cc(Br)c(O)c(Br)c1)c1cc(Br)c(O)c(Br)c1	–	2.43
